ChEMBL document CHEMBL1146919, “Triazolo-tetrahydrofluorenones as selective estrogen receptor beta agonists” (Bioorg Med Chem Lett, 2006)

Legend:
Estrogen receptor [1] = target: T1, Estrogen receptor (Homo sapiens, UniProt P03372)
T1 sequence (P03372 whole entry): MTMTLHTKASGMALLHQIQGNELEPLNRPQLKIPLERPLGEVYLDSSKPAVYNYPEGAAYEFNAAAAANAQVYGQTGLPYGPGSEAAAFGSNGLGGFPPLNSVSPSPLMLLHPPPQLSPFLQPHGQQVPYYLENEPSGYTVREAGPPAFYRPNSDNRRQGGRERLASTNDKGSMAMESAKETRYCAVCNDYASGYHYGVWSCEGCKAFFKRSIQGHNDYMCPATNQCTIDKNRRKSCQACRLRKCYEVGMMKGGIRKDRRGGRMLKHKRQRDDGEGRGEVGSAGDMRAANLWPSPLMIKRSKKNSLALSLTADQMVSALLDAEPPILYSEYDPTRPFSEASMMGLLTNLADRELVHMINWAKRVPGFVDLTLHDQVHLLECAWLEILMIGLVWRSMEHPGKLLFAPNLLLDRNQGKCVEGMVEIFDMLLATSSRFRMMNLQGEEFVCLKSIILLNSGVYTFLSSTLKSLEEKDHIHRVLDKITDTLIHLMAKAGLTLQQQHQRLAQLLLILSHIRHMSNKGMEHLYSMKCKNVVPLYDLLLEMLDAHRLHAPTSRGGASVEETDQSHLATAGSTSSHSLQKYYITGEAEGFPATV
Description: Binding affinity to human recombinant ERalpha by scintillation proximity assay

Estrogen receptor beta [2] = target: T2, Estrogen receptor beta (Homo sapiens, UniProt Q92731)
T2 sequence (Q92731 whole entry): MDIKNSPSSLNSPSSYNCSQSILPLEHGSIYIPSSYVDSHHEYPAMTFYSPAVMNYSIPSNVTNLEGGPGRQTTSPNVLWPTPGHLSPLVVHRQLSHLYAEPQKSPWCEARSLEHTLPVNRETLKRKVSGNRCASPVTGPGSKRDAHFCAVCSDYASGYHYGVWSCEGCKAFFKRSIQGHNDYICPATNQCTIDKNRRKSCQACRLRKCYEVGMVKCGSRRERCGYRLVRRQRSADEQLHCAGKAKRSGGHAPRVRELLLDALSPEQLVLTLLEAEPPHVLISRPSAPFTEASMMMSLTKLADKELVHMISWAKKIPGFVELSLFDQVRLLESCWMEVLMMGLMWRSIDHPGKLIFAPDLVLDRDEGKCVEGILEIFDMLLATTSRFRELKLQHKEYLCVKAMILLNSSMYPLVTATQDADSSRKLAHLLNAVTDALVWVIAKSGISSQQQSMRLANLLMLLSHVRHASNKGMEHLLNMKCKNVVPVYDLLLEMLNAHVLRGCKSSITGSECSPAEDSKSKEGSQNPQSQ
Description: Agonist activity at human recombinant ERbeta expressed in HEK293 cells by alkaline phosphatase reporter gene transactivation assay

Estrogen receptor beta [3] = target: T2, Estrogen receptor beta; remark: listed apart in the source
Description: Binding affinity to human recombinant ERbeta by scintillation proximity assay

Estrogen receptor [4] = target: T1, Estrogen receptor; remark: listed apart in the source
Description: Agonist activity at human recombinant ERalpha expressed in HEK293 cells by alkaline phosphatase reporter gene transactivation assay

[5] = AUC in Sprague-Dawley rat at 1 mg/kg, iv; type: ADME, organism-based; set-up: dose 1 mg/kg, route intravenous; settings: plasma
[6] = Plasma clearance in Sprague-Dawley rat at 1 mg/kg, iv and 2 mg/kg, po; type: ADME, organism-based
[7] = Half life in Sprague-Dawley rat at 1 mg/kg, iv and 2 mg/kg, po; type: ADME, organism-based; settings: in vivo
[8] = Bioavailability in Sprague-Dawley rat at 1 mg/kg, iv and 2 mg/kg, po; type: ADME, organism-based; settings: in vivo

| IC50 (Estrogen receptor [1]) [nM] | EC50 (Estrogen receptor beta [2]) [nM] | IC50 (Estrogen receptor beta [3]) [nM] | EC50 (Estrogen receptor [4]) [nM] | AUC [5] [µM·h] | clearance [6] [mL/min/kg] | half-life [7] [h] | bioavailability [8] [%] | Compound |
| --- | --- | --- | --- | --- | --- | --- | --- | --- |
| > 10000 | 475 | 3040 | 1230 |  |  |  |  | CCC12CCC(=O)C=C1c1ccc3nn[nH]c3c1C2 (stereo not given) |
| 6170 | 17 | 81 | 449 |  |  |  |  | CCCC12CCC(=O)C(C)=C1c1ccc3nn[nH]c3c1C2 (stereo not given) |
| 34 | 0.96 | 2.3 | 79 |  |  |  |  | CCCC[C@@]12CCC(=O)C(c3cccs3)=C1c1ccc3nn[nH]c3c1C2 |
| 141 | 4 | 1.8 | 94 | 0.5 | 102 | 1.5 | 0 | CCCCC12CCC(=O)C(Br)=C1c1ccc3nn[nH]c3c1C2 (racemic) |
| 1120 | 6.5 | 7.4 | 870 |  |  |  |  | CCCCC12CCC(=O)C(c3ccco3)=C1c1ccc3[nH]nnc3c1C2 (stereo not given) |
| 81 | 4.3 | 11 | 901 |  |  |  |  | CCC12CCC(=O)C(c3ccc(O)cc3)=C1c1ccc3[nH]nnc3c1C2 (stereo not given) |
| 344 |  | 23 |  |  |  |  |  | CCCC1=C2c3ccc4[nH]nnc4c3CC2(CCC)CCC1=O (stereo not given) |
| 5980 | 20 | 27 |  |  |  |  |  | CCCCC12CCC(=O)C(C)=C1c1ccc3[nH]nnc3c1C2 (stereo not given) |
| 5170 | 46 | 60 | 1270 |  |  |  |  | CCC12CCC(=O)C(Br)=C1c1ccc3nn[nH]c3c1C2 (stereo not given) |
| 352 | 14 | 11 | 794 |  |  |  |  | CCCC1=C2c3ccc4nn[nH]c4c3CC2(CC)CCC1=O (stereo not given) |
| 612 | 7.7 | 18 | 120 |  |  |  |  | CCCC12CCC(=O)C(CC)=C1c1ccc3[nH]nnc3c1C2 (stereo not given) |
| 1250 | 96 | 58 | 1180 |  |  |  |  | CCCCC12CCC(=O)C(CCC)=C1c1ccc3[nH]nnc3c1C2 (stereo not given) |
| 1910 | 5.5 | 5.7 | 519 | 1.9 | 24.4 | 2.9 | 36 | CCCC[C@@]12CCC(=O)C(Br)=C1c1ccc3[nH]nnc3c1C2 |
| 896 | 2.3 | 3.2 | 169 |  |  |  |  | CCCC[C@@]12CCC(=O)C(C(F)(F)F)=C1c1ccc3[nH]nnc3c1C2 |
| 1320 | 7.3 | 18 | 460 |  |  |  |  | CCC1=C2c3ccc4[nH]nnc4c3CC2(CC)CCC1=O (stereo not given) |
|  |  |  |  | 1.7 | 31.6 | 2.9 | 85 | CCCCC12CCC(=O)C(CC)=C1c1ccc3[nH]nnc3c1C2 (racemic) |
| 647 | 5.8 | 5.7 | 140 | 1 | 64.8 | 0.3 | 70 | CCC1=C2c3ccc4[nH]nnc4c3C[C@]2(CC)CCC1=O |
| 1130 | 60 | 43 | 681 |  |  |  |  | CCCCC1=C2c3ccc4[nH]nnc4c3CC2(CC)CCC1=O (stereo not given) |
| 1900 | 20 | 24 | 671 |  |  |  |  | CCC12CCC(=O)C(C)=C1c1ccc3[nH]nnc3c1C2 (stereo not given) |
| > 10000 |  | 1520 |  |  |  |  |  | CCC1=C2c3ccc4[nH]nnc4c3C[C@@]2(CC)CCC1=O |
| 3300 | 18 | 43 | 561 |  |  |  |  | CCCC12CCC(=O)C(Br)=C1c1ccc3nn[nH]c3c1C2 (stereo not given) |
| 1680 | 4.9 | 11 | 241 | 0.6 | 108 | 0.4 | 59 | CC[C@@]12CCC(=O)C(C(F)(F)F)=C1c1ccc3nn[nH]c3c1C2 |

| Compound | IC50 (Estrogen receptor [1]) [nM] | EC50 (Estrogen receptor beta [2]) [nM] | IC50 (Estrogen receptor beta [3]) [nM] | EC50 (Estrogen receptor [4]) [nM] | AUC [5] [µM·h] | clearance [6] [mL/min/kg] | half-life [7] [h] | bioavailability [8] [%] |
| --- | --- | --- | --- | --- | --- | --- | --- | --- |
| CCCC[C@]12CCC(=O)C(CC)=C1c1ccc3[nH]nnc3c1C2 | 4750 | 28 | 242 | 391 | 3 | 18.3 | 1.2 | 99 |
| CCCC[C@@]12CCC(=O)C(CC)=C1c1ccc3nn[nH]c3c1C2 | 220 | 0.4 | 5.1 | 30 | 0.9 | 62 | 0.4 | 28 |
